In patent publication US20100239568A1, “DIAGNOSTICS AND TREATMENTS FOR TUMORS” (GENENTECH, INC., priority 2006, published 2010):

Legend:
LLC tumors = assay: Tumor growth of LLC tumors in mice; format: in vivo, mouse; settings: LLC in C57BL/6; 5FU 50 mg/kg once a week, Gemcitabine 120 mg/kg twice a week, IP; day 17
Protocol: (§1) Cell Lines. The EL4, LLC, B16F1 and TIB6 (J558) tumor cell lines were obtained from American Type Culture Collection (ATCC) and maintained in tissue culture in high glucose Dulbecco's Modified Medium (DMEM) and supplemented with 10% fetal bovine serum (FBS) and 2 mM glutamine. The terms “B16F1” and “B16” are used interchangeably herein to refer to the same melanoma cell line.
(§2) Antibodies. Anti-VEGF, such as G6-23, is an antibody that binds to and neutralizes murine and human forms of VEGF. Derived from phage display technology, the IgG portion comprised murine isotype IgG2a (see, e.g., Malik, A. K. et al. Redundant roles of VEGF-B and P1GF during selective VEGF-A blockade in mice. Blood 107:550-7 (2006)) and was dosed at 10 mg/kg, IP, twice weekly unless indicated otherwise. Isotype-matched control antibody was anti-human ragweed-IgG2a (Genentech, Inc.). Anti-CD11b+ antibody (eBioSciences), anti-L-selectin (BD BioSciences) and anti-CXCR4 (Torrey Pines Lab) were used in FACS experiments. […] Tumor measurement was performed twice/week and terminal tumor weights were determined as described above. […]
(§3) B16F1 admixing experiments. […] Tumor size was assessed using Vernier calipers 2-3 times per week after tumors reached a palpable size. Tumor volume was determined using the Pi/6×L×W×W formula with L as the longest diameter and W the diameter at the position perpendicular to L. […]

B16F1 tumors = assay: Tumor growth of B16F1 tumors in mice; format: in vivo, mouse; settings: B16F1 in C57BL/6; compared to anti-VEGF treatment; day 17
Protocol: as §1, §2, §3

EL4 tumors [1] = assay: Tumor growth of EL4 tumors in mice; format: in vivo, mouse; settings: EL4 in C57BL/6; 5FU 50 mg/kg once a week, Gemcitabine 120 mg/kg twice a week, IP; day 17
Protocol: as §1, §2, §3

CD11b+Gr1+ cells = assay: Flow cytometry of myeloid cells in tumor, bone marrow and peripheral blood of treated mice; format: in vivo, mouse; settings: for CD11b+Gr1+ cells in B16F1 tumors after chemotherapy: tumor isolates after 17 days
Protocol: Flow cytometry. Tumors of control and anti-VEGF-treated mice were isolated and single cell suspension was generated by chopping of tumor tissues followed by treatment with a cell homogenizer (VWR). BMMNCs were flushed from femur and tibia of implated animals and underwent RBC lysis using ACK lysis buffer (Cambrex, Mass.). Peripheral blood was collected by retro-orbital bleed and 40 μl of peripheral blood was pre-treated with ACK buffer for red blood cells lysis.
Cells from BM, tumor or peripheral blood were stained with a series of monoclonal antibodies including, CD11b, Gr1, CD19, CD90, VEGFR2, CXCR4, L-Selectin2 (all from BD BioSciences, CA), VEGFR1 (R&D, CA), Tie2 (eBioSciences, CA) along with appropriate isotype control to investigate the myeloid and lymphoid fractions in each compartment. FACS data were acquired on FACS calibur and analyzed by Cell Quest Pro software (BD Biosciences).
To isolate GFP+ cells and/or CD11b+Gr1+, single cell suspension was provided from the bone marrow or tumors of implanted mice. Cells and were stained with anti-CD11b conjugated to APC and anti-Gr1 conjugated to PE. Populations of GFP, GFP−, CD11b+Gr1+ and CD11b−Gr1− cells were isolated in a FACS Vantage machine and post-sort analysis ensured the purity of the population of interest in each compartment.

TIB6 tumors = assay: Tumor growth of TIB6 tumors in mice; format: in vivo, mouse; settings: TIB6 in C57BL/6; 5FU 50 mg/kg once a week, Gemcitabine 120 mg/kg twice a week, IP; day 17
Protocol: as §1
Antibodies. Anti-VEGF, such as G6-23, is an antibody that binds to and neutralizes murine and human forms of VEGF. Derived from phage display technology, the IgG portion comprised murine isotype IgG2a (see, e.g., Malik, A. K. et al. Redundant roles of VEGF-B and P1GF during selective VEGF-A blockade in mice. Blood 107:550-7 (2006)) and was dosed at 10 mg/kg, IP, twice weekly unless indicated otherwise. Isotype-matched control antibody was anti-human ragweed-IgG2a (Genentech, Inc.). […] Tumor measurement was performed twice/week and terminal tumor weights were determined as described above.
B16F1 admixing experiments. […] Tumor size was assessed using Vernier calipers 2-3 times per week after tumors reached a palpable size. Tumor volume was determined using the Pi/6×L×W×W formula with L as the longest diameter and W the diameter at the position perpendicular to L.
Chemotherapy. […] Tumor volume was measured twice a week and was calculated as described.

EL4 tumors [2] = assay: In vivo treatment with clodronate liposomes and anti-VEGF, EL4 tumor volume; design: species or system mouse; settings: mice bearing resistant tumors
Protocol: In vivo treatment to examine for macrophage depletion and tumor expression: EL4, the murine lymphocyte leukemia cell line, was used. Treatment was started 48 hours after implanting EL4 tumor cells (5×10^6, 0.1 ml vol. in matrigel) in nude mice. Treatment was as follows: Group 1: 8 mice, twice a week PBS-liposome 200 μl IV and Ragweed IgG 2×5 mg/kg/week 100 μl ip.; Group 2: 8 mice, twice a Week: PBS-liposome 200 μl IV and G6-31 2×5 mg/kg/week 100 μl ip.; Group 3: 8 mice, twice a week: Clodronate-liposome 200 μl IV. Ragweed IgG 2×5 mg/kg/week 100 μl ip.; Group 4: 8 mice twice a week: Clodronate-liposome 200 μl IV. G6-31 2×5 mg/kg/week 100 μl ip. Group 5: 8 mice twice a week: Clodronate-liposome 200 μl Iv. PBS twice a week 100 μl ip. 3 mice of each group were pre-bled for 50 μl of whole blood for FACS macrophage cell population evaluation. 3 mice of each group were bled (optical) for 100 μl of whole blood at 1 hour after each PBS-liposome or Clodronate-liposome injection for FACS analysis. The study continued until sufficient tumor growth (not beyond 5 weeks). Tumor growth was defined as sufficient if a tumor was greater than 20 mm in length. Tumor size was measured weekly (1×w×h). […] At the endpoint of the experiment the animals were sacrificed, the tumors, measured one final time then extracted, weighed and then fixed. […]

HUVEC cells = assay: Angiogenic sprouting and capillary lumen formation assay; format: cell-based, human; settings: 1.25 μg/ml with D551 fibroblasts, day 10
Protocol: See FIG. 13, Panel A and Pane B on day 10. In the assays, HUVEC cells were thawed at low passage number a day before the cells were coated on beads. The cells were detached at about 80% confluency and coated on cytodex microbeads (a cross-linked dextran matrix) with HUVEC (400 cells/bead) for 4 hours at 37° C. Beads and free HUVEC cells were transferred to a flask and cultured overnight. The beads were detached and they were mixed with fibrinogen (bovine plasma) (250 μg/ml). Fibrinogen was then converted to insoluble fibrin gel by adding thrombin. There are about 100 beads/12-well plate. The beads were cultured with 40,000 D551 fibroblasts and VEGF as positive controls, D551 or VEGF as negative controls, MCP-1 and D551, or MIP-1alpha and D551. The media was changed everyday. The cultures were stained with biotinylated anti-human CD31 and Cy3 streptavidin overnight with extensive washes. Pictures were taken at 60 hours, 6 days and 10 days.

xenograft models = settings: most xenograft models tested; cited from earlier work
[3] = system: human cancers, including renal and ovarian carcinomas; settings: clinical evaluation; cited from earlier work

O=c1[nH]cc(F)c(=O)[nH]1 [5FU, 5-Fluorouracil]
tumor response to chemotherapy (tumor volume) (LLC tumors): complete response
tumor response to chemotherapy (tumor volume) (B16F1 tumors): resistance
tumor response to chemotherapy (tumor volume) (EL4 tumors [1]): complete response
BM CD11b+Gr1+ cells after chemotherapy (CD11b+Gr1+ cells; bone marrow, all tumor types): complete exhaustion
CD11b+Gr1+ cells in B16F1 tumors after chemotherapy (CD11b+Gr1+ cells): lack of CD11b+Gr1+ cells
tumor response to chemotherapy (tumor volume) (TIB6 tumors): completely sensitive

Nc1ccn([C@@H]2O[C@H](CO)[C@@H](O)C2(F)F)c(=O)n1 [Gemcitabine]
tumor response to chemotherapy (tumor volume) (LLC tumors): partial resistance
tumor response to chemotherapy (tumor volume) (B16F1 tumors): resistance
tumor response to chemotherapy (tumor volume) (EL4 tumors [1]): partial resistance
CD11b+Gr1+ cells in B16F1 tumors after chemotherapy (CD11b+Gr1+ cells): lack of CD11b+Gr1+ cells
tumor response to chemotherapy (tumor volume) (TIB6 tumors): completely sensitive

O=P(O)(O)C(Cl)(Cl)P(=O)(O)O [clodronate]
efficacy of anti-VEGF treatment after depletion of TAMs (EL4 tumors [2]): improved

MCP-1: monocyte chemoattractant protein-1
angiogenic activity (sprouting and capillary lumen formation) (HUVEC cells): angiogenic activity

bevacizumab: humanized anti-VEGF monoclonal antibody
tumor growth and tumor angiogenesis (xenograft models): significantly inhibited tumor growth and reduced tumor angiogenesis
single-agent activity [3]: significant single-agent activity

B1: MIP-1alpha: macrophage inflammatory protein-1a (protein, UniProt P10147 24-92, looked up)
C-C motif chemokine 3: SLAADTPTACCFSYTSRQIPQNFIADYFETSSQCSKPGVIFLTKRSRQVCADPSEEWVQKYVSDLELSA
angiogenic activity (sprouting and capillary lumen formation) (HUVEC cells): angiogenic activity
